The test system of one series is rat synaptosomes. The experiment in a line: Synaptosome 5-HT release assay. Particulars: for EC50: [3H]5-HT. The series is classed as biochemical, Sprague-Dawley rats. How it is done: Synaptosome 5-HT Release Assay. Synaptosome release assays were conducted according to modifications of previously described procedures (Partilla et al. (2016). Interrogating the Activity of Ligands at Monoamine Transporters in Rat Brain Synaptosomes. In Neurotransmitter Transporters (pp. 41-52). Springer.). Briefly, synaptosomes were prepared from rat brains. Male Sprague-Dawley rats were rendered unconscious with CO2 and their brains were immediately removed. The cerebella were discarded and the whole brains (minus striatum) were placed in ice-cold 0.32 M sucrose (10 mL per brain) and gently homogenized by hand. The homogenate of each brain was centrifuged at 1,000× g at 4° C. for 10 mins and the resulting supernatant was diluted with ice-cold 0.32 M sucrose to a total volume of 10 mL to provide the synaptosome solution. Synaptosomes were then preloaded with 5 nM [^3H] 5-HT in the presence of selective uptake inhibitors of DAT (50 nM GBR12935), NET (100 nM nomifensine), and VMAT2 (1 μM reserpine) in Krebs phosphate buffer (KPB). The incubations were allowed to reach equilibrium for 2 h at 25° C. For the release reactions, 425 μL of preloaded synaptosomes were added to test tubes containing 75 μL of test drugs diluted in KPB containing 1 mg/mL BSA. After 10 mins, the release reaction was stopped using a cell harvester by rapid vacuum filtration over GF/B filter paper presoaked in wash buffer (10 mM Tris-HCl, pH 7.4, 150 mM NaCl) and the filters were washed with additional wash buffer. Filters were dried for 1 h at 60° C. and retained radioactivity was quantified using a MicroBeta 2 liquid scintillation counter. The amount of retained radioactivity was inversely proportional to the extent of release.

The nature of series [1]: Pharmacokinetics in rats, plasma. The series is classed as in vivo. The following applies: male, Sprague Dawley, rat plasma, SC. How it is done: Animals. Male Sprague Dawley rats, aged 8-12 weeks, were used in these studies. Four rats were housed in each cage. Temperature and humidity were maintained at 22±3° C. and 30-70%, respectively, and illumination was controlled to give a 12 h light and 12 h dark cycle. Temperature and humidity were recorded by an auto-controlled data logger system. All animals were provided laboratory rodent diet and were fasted for 4 h pre-dose and 2 h post-dose. Reverse osmosis water treated with ultraviolet light was provided ad libitum. Animals were randomly assigned to treatment groups.
Drugs. Compounds 4 and 5 were prepared as described above. Compound 6 was commercially obtained. Test compounds were used as the hydrogen fumarate (6) or hydrochloride (4 and 5) salts and were dissolved in a vehicle consisting of normal saline. They were then administered subcutaneously (SC) at a dose of 1 or 10 mg/kg (calculated based on the free base) and at a volume of 5 mL/kg body weight.
Sample Collection and Bioanalysis. Blood samples (approximately 120 μL) were collected under light isoflurane anesthesia (Surgivet®) from the retro orbital plexus at 0.08, 0.25, 0.5, 1, 2, 4, 8, and 24 h (4 animals per time point). Immediately after blood collection, plasma was harvested by centrifugation at 4,000 rpm for 10 min at 4° C. and samples were stored at −70±10° C. until bioanalysis. Following blood collection, animals were immediately sacrificed, the abdominal vena-cava was cut open, and the whole body was perfused from the heart using 10 mL of normal saline, and brain samples were collected from all animals. After isolation, brain samples were rinsed three times in ice-cold normal saline (for 5-10 seconds/rinse using ˜5-10 mL normal saline in disposable petri dish for each rinse) and dried on blotting paper. Brain samples were homogenized using ice-cold phosphate-buffered saline (pH 7.4). Total homogenate volume was three times the tissue weight. All homogenates were stored at −70±10° C. until bioanalysis. For bioanalysis, 25 μL aliquots of plasma/brain study samples or spiked plasma/brain calibration standards were added to individual pre-labeled micro-centrifuge tubes followed by 100 μL of an internal standard solution (glipizide, 500 ng/ml in acetonitrile) except for blanks, where 100 μL of acetonitrile was added. Samples were vortexed for 5 minutes and then centrifuged for 10 minutes at 4,000 rpm at 4° C. Following centrifugation, 100 μL of each clear supernatant was transferred to a 96 well plate and analyzed with a fit-for-purpose LC-MS/MS method, with authentic samples of each analyte used for calibration and identification.
Data Analysis. Pharmacokinetic parameters were estimated using the non-compartmental analysis tool of Phoenix® WinNonlin software (Ver 8.0).

The next series addresses CYP3A4 (Homo sapiens (Human), UniProt P08684). In words: CYP inhibition in human liver microsomes, CYP3A4. Format: in vitro ADME. The following applies: for inhibition at 10 min, 10 µM: both sexes, human, pooled human liver microsomes, pH 7.4, probe midazolam (2 μM), HLM, midazolam substrate, read-out: CYP 3A4 % Inhibition at 10 μM.
The target in the next series is human 5-HT2C receptor (Homo sapiens (Human), UniProt P28335). In words: cell-based. Format: cell-based. The following applies: Ca2+ flux.
A further series concerns the target CYP1A2 (Homo sapiens (Human), UniProt P05177). The experiment in a line: CYP inhibition in human liver microsomes, CYP1A2. The series is classed as in vitro ADME. Particulars: for inhibition at 10 min, 10 µM: both sexes, human, pooled human liver microsomes, pH 7.4, probe phenacetin (10 μM), HLM, phenacetin substrate, read-out: CYP 1A2 % Inhibition at 10 μM. As for the experimental part:
HLM Incubations. Pooled HLM from adult male and female donors (Corning 452117) were used. Microsomal incubations were carried out in multi-well plates. Liver microsomal incubation aliquots contained 1) PBS (100 mM, pH 7.4), MgCl2 (3.3 mM), and NADPH (1 mM); 2) liver microsomal protein (0.2 mg/mL); 3) the reference CYP substrates: phenacetin for CYP1A2 (10 μM), diclofenac for CYP2C9 (5 μM), (S)-mephenytoin for CYP2C19 (30 μM), dextromethorphan for CYP2D6 (5 μM), and midazolam for CYP3A4 (2 μM); and 4) test compounds (10 μM), control inhibitors (3 μM α-naphthoflavone for CYP1A2, 3 μM sulfaphenazole for CYP2C9, 1 μM (+)-N-3-benzylnirvanol for 2C19, 3 μM quinidine for CYP2D6, or 3 μM ketoconazole for CYP3A4), or solvent (for uninhibited condition). Incubations were carried out at 37° C. with constant shaking for 10 minutes.
Sample Analysis. […] Percent inhibition by test compounds or control inhibitors was calculated by comparing the metabolite formation in the presence of the inhibitor compared to the metabolite formation in the absence of the inhibitor.

Results on seven molecules are retold here after patent US20240317683A1, “METHODS OF TREATING MOOD DISORDERS” (priority 2020, published 2024).

Where a name gives a salt, the structure may show the parent alone.

CYP1A2, sequence (P05177 whole entry, looked up): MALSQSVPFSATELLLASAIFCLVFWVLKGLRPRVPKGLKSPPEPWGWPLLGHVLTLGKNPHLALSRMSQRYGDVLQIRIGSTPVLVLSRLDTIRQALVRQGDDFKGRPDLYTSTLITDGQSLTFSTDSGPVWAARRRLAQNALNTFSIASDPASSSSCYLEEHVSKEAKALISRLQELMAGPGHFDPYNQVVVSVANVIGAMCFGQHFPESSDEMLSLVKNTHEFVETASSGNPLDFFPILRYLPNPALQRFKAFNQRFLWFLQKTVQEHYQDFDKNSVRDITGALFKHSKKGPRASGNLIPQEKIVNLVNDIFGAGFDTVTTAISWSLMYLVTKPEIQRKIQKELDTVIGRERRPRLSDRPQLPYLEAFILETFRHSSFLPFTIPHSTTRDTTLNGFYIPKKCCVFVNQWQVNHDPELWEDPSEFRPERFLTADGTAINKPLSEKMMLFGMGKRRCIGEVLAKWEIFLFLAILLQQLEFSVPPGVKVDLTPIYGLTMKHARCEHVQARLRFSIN
human 5-HT2C receptor, sequence (P28335 33-458 limits assumed): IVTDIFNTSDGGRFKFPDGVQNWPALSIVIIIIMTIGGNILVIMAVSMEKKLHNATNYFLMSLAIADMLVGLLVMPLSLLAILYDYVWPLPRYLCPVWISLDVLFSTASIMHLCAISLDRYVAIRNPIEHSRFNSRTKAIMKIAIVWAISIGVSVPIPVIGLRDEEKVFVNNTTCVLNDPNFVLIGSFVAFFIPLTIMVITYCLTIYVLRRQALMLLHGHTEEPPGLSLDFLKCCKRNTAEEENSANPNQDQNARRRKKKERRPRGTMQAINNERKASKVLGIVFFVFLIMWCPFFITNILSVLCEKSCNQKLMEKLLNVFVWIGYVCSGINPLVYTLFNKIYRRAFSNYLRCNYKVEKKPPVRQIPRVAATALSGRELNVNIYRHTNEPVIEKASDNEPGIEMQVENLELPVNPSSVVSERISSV
CYP3A4, sequence (P08684 whole entry, looked up): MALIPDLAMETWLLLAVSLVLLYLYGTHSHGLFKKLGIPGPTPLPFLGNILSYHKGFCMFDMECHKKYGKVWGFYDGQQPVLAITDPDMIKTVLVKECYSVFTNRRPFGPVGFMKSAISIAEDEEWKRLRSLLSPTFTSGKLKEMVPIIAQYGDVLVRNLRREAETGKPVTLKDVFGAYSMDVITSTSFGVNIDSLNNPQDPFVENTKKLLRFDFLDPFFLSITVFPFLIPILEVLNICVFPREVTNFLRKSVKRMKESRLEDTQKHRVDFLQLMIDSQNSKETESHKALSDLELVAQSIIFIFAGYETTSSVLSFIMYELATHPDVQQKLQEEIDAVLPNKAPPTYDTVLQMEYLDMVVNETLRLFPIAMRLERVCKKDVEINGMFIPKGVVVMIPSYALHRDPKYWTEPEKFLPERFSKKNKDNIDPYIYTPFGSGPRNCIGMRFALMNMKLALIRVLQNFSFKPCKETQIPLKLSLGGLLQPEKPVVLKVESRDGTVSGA

For `CN(C)CCc1c[nH]c2ccccc12` [DMT, N,N-dimethyltryptamine, reference compound], in the series on rat synaptosomes, the “% Release @ Max Dose (10 μM)” value turned out to be 80.77% and a half-maximal response (EC50) required 80.8 nM.
In the case of `CN(C)CCc1c[nH]c2ccc(F)cc12` [Compound 5, 2-(5-fluoro-1H-indol-3-yl)-N,N-dimethylethan-1-amine hydrochloride], in series [1] (10 mg/kg), the area under the curve AUC(0-t) was 266 ng·h/mL, the Cmax was found to be 243 ng/mL, the Tmax turned out to be 15 min and the half-life is 33 min.
Regarding `CCCN(CC)CCc1c[nH]c2ccccc12` [Compound 1, ethylpropyltryptamine], the inhibition at 10 min, 10 µM on CYP3A4 is 2%. In addition, at human 5-HT2C receptor, the “5-HT2C % Act @ Max Dose” value is 90.8% and a half-maximal response (EC50) required 33.4 nM. Further, the inhibition at 10 min, 10 µM on CYP1A2 came to 37.1%.
For `CCN(C)CCc1c[nH]c2cccc(O)c12` [Compound 6], the IC50 on CYP3A4 was above 50000 nM. In series [1] (10 mg/kg), the AUC(0-t) amounted to 3000 ng·h/mL, the highest level (Cmax) was 624 ng/mL and the Tmax was found to be 120 min. Besides, on CYP1A2, the IC50 is above 50000 nM.
On CYP3A4, `CCN(C)CCc1c[nH]c2ccc(F)cc12` [Compound 4, N-ethyl-2-(5-fluoro-1H-indol-3-yl)-N-methylethan-1-amine hydrochloride] returned an IC50 above 50000 nM. At human 5-HT2C receptor, the “5-HT2C % Act @ Max Dose” value came to 85.13% and it took 9.46 nM to reach a half-maximal effect (EC50). Further, in the series with rat synaptosomes, the “% Release @ Max Dose (10 μM)” value was 71.36% and the EC50 turned out to be 8.43 nM. Moreover, in series [1] (1 mg/kg), the AUC(0-t) is 46.8 ng·h/mL, the peak level (Cmax) was 41.3 ng/mL and the Tmax turned out to be 30 min. In addition, in series [1] (10 mg/kg), the AUC(0-t) amounted to 499 ng·h/mL, the Cmax was determined as 237 ng/mL and the Tmax was found to be 60 min. The molecule further showed an IC50 on CYP1A2 above 50000 nM.
`CCCN(CC)CCc1c[nH]c2ccc(F)cc12` [Compound 3, N-ethyl-N-(2-(5-fluoro-1H-indol-3-yl)ethyl) propan-1-amine hydrochloride]: the IC50 at CYP3A4 was above 50000 nM; on CYP1A2 it was 8400 nM.
For `CCN(C)CCc1c[nH]c2ccccc12` [Compound 2, methylethyltryptamine], at CYP3A4, the IC50 is above 50000 nM and the inhibition at 10 min, 10 µM is 0%. At human 5-HT2C receptor, the “5-HT2C % Act @ Max Dose” value was determined as 89.7%. In the series with rat synaptosomes, the “% Release @ Max Dose (10 μM)” value stood at 71% and a half-maximal response (EC50) required 183 nM. On CYP1A2, the IC50 was above 50000 nM and the inhibition at 10 min, 10 µM was 0.5%.
